From patent US11597724B2, “Herbicidally active 3-phenylisoxazoline-5-carboxamides of tetrahydro and dihydrofuran carboxylic acids and esters” (Bayer Aktiengesellschaft, priority 2017, dated 2023) come the findings set out here.

Common to all, as to type: in vivo
Assay [1] relates to Polygonum convolvulus. Put plainly: Pre-emergence herbicidal activity against POLCO. The settings on record: dosage 80 g/ha; for pest or weed control at 80 g/ha: Fallopia convolvulus, 504 h. The source says: (§1) 1. Pre-Emergence Herbicidal Action and Crop Plant Compatibility Seeds of monocotyledonous and dicotyledonous weed plants and crop plants are placed in plastic or wood fiber pots and covered with soil. The compounds of the invention, formulated in the form of wettable powders (WP) or as emulsion concentrates (EC), are then applied onto the surface of the covering soil as aqueous suspension or emulsion with addition of 0.5% additive at a water application rate of 600 l/ha (converted). After the treatment, the pots are placed in a greenhouse and kept under good growth conditions for the trial plants. After about 3 weeks, the effect of the preparations is scored visually in comparison with untreated controls as percentages. For example, 100% activity=the plants have died, 0% activity=like control plants. POLCO: Polygonum convolvulus SETVI: Setaria viridis

The test system of assay [2] is Abutilon theophrasti. Put plainly: Post-emergence herbicidal activity against ABUTH. The settings on record: Abutilon theophrasti, 504 h, dosage 320 g/ha, rated about 3 weeks after treatment. The method, boiled down: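 Greenhouse-grown plants treated at one-leaf stage, 2 to 3 weeks after sowing, with WP or EC formulations sprayed as aqueous suspension/emulsion plus 0.5% additive at 600 l/ha. Activity rated visually about 3 weeks later versus untreated controls (100% = plants dead, 0% = like control).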

For assay [3], the system named is Lolium rigidum. Put plainly: Post-emergence herbicidal activity against LOLRI. The settings on record: dosage 320 g/ha, rated about 3 weeks after treatment; for pest or weed control at 320 g/ha: Lolium rigidum, 504 h. The gist of the method:
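Greenhouse-grown plants sprayed post-emergence at the one-leaf stage, 2 to 3 weeks after sowing, with WP or EC formulations plus 0.5% additive at 600 l/ha water. Activity rated visually after about 3 weeks versus untreated controls (100% = plants dead, 0% = like control).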

Assay [4] has as its system Viola tricolor. Put plainly: Post-emergence herbicidal activity against VIOTR. The settings on record: dosage 320 g/ha, rated about 3 weeks after treatment; for pest or weed control at 320 g/ha: Viola tricolor, 504 h. The method, boiled down: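 Greenhouse plants in sandy loam treated at one-leaf stage, 2 to 3 weeks after sowing, by spraying WP or EC formulations with 0.5% additive at 600 l/ha water. Activity rated visually after about 3 weeks versus untreated controls, 100% = plants dead, 0% = like control.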

For assay [5], the system named is Amaranthus retroflexus. Put plainly: Pre-emergence herbicidal activity against AMARE. The conditions noted are these: dosage 80 g/ha; for pest or weed control at 80 g/ha: Amaranthus retroflexus, 504 h.
Text: as §1, with “AMARE: Amaranthus retroflexus AVEFA: Avena fatua” for “POLCO: Polygonum convolvulus SETVI: Setaria viridis”

For assay [6], the system named is Setaria viridis. Put plainly: Post-emergence herbicidal activity against SETVI. The settings on record: Setaria viridis, 504 h, dosage 320 g/ha, rated about 3 weeks after treatment. The gist of the method: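 Greenhouse weeds in sandy loam were sprayed at the one-leaf stage, 2–3 weeks after sowing, with WP or EC formulations plus 0.5% additive at 600 l/ha water. About 3 weeks later, damage was rated visually against untreated controls, where 100% means plants dead and 0% means like control.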

Assay [7] concerns Avena fatua. Put plainly: Post-emergence herbicidal activity against AVEFA. The conditions noted are these: dosage 320 g/ha, rated about 3 weeks after treatment; for pest or weed control at 320 g/ha: Avena fatua, 504 h. The gist of the method:
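Greenhouse pots of sandy loam; plants sprayed at one-leaf stage, 2 to 3 weeks after sowing, with WP or EC formulations in water plus 0.5% additive at 600 l/ha. Activity rated visually after about 3 weeks against untreated controls (100% = plants dead, 0% = like control).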

As a reminder, the pest or weed control is how far the test organism was held down. A higher pest or weed control goes with a strong effect. For `C=C[C@]1(C(=O)N[C@H]2CO[C@@H](C(=O)OC(C)(C)C)C2)CC(c2cc(F)cc(F)c2)=NO1` (mixture of isomers) [I-38, tert-butyl cis-4-[[(5S)-3-(3,5-difluorophenyl)-5-vinyl-4H-isoxazole-5-carbonyl]amino]tetrahydrofuran-2-carboxylate], the pest or weed control at 80 g/ha in assay [1] and in assay [5] was 100% throughout. Also, the pest or weed control at 320 g/ha in assay [2] was 80%; in assay [3], 90%; in assay [4], 80%; in assay [6], 100%; in assay [7] it was 90%.
Take `C=C[C@]1(C(=O)N[C@H]2CO[C@@H](C(=O)OC(C)C)C2)CC(c2cc(F)cc(F)c2)=NO1` (mixture of isomers) [I-36, isopropyl cis-4-[[(5S)-3-(3,5-difluorophenyl)-5-vinyl-4H-isoxazole-5-carbonyl]amino]tetrahydrofuran-2-carboxylate]: the pest or weed control at 80 g/ha in assay [1] and in assay [5] was 100% in each case. The pest or weed control at 320 g/ha in assay [2] worked out at 90%; in assay [3] it was 90%; in assay [4], 90%; in assay [6], 80%; in assay [7], 90%.
Regarding `C=CC1(C(=O)NC2=C(C(=O)OCC)COC2)CC(c2cc(F)cc(F)c2)=NO1` (centres unmarked) [I-23, ethyl 4-[[3-(3,5-difluorophenyl)-5-vinyl-4H-isoxazole-5-carbonyl]amino]-2,5-dihydrofuran-3-carboxylate], the pest or weed control at 320 g/ha stood at 90% in assay [3] and 100% in assay [7]. The same compound displayed a pest or weed control at 80 g/ha in assay [5] of 80%.
For `C=C[C@]1(C(=O)NC2COCC2C(=O)OC)CC(c2cc(F)cc(F)c2)=NO1` (stereo partly drawn) [I-26, methyl 4-[[(5S)-3-(3,5-difluorophenyl)-5-vinyl-4H-isoxazole-5-carbonyl]amino]tetrahydrofuran-3-carboxylate], the pest or weed control at 320 g/ha turned out to be 80% in assay [4], 80% in assay [6] and 90% in assay [7]. The pest or weed control at 80 g/ha in assay [5] came to 100%.
With `CCOC(=O)[C@H]1C[C@@H](NC(=O)C2(C)CC(c3cccc(F)c3)=NO2)CO1` (mixture of isomers) [I-30, ethyl cis-4-[[(5RS)-3-(3-fluorophenyl)-5-methyl-4H-isoxazole-5-carbonyl]amino]tetrahydrofuran-2-carboxylate], the pest or weed control at 80 g/ha in assay [1] was determined as 90%; in assay [5] it was 80%. Moreover, the pest or weed control at 320 g/ha in assay [3] was 100%; in assay [6], 90%; in assay [7], 100%.
Take `CC(C)OC(=O)[C@H]1C[C@@H](NC(=O)C2(C)CC(c3cccc(F)c3)=NO2)CO1` (mixture of isomers) [I-32, isopropyl cis-4-[[(5RS)-3-(3-fluorophenyl)-5-methyl-4H-isoxazole-5-carbonyl]amino]tetrahydrofuran-2-carboxylate]: the pest or weed control at 80 g/ha in assay [1] and in assay [5] was 90% throughout. Also, the pest or weed control at 320 g/ha in assay [2] was found to be 80%; in assay [3], 100%; in assay [6], 90%; in assay [7], 100%.
Regarding `COC(=O)C1COCC1NC(=O)C1(OC)CC(c2cc(F)cc(F)c2)=NO1` (centres unmarked) [I-27, methyl 4-[[3-(3,5-difluorophenyl)-5-methoxy-4H-isoxazole-5-carbonyl]amino]tetrahydrofuran-3-carboxylate], the pest or weed control at 80 g/ha in assay [1] stood at 80%; in assay [5] it was 90%. In addition, the pest or weed control at 320 g/ha amounted to 80% in assay [4], 80% in assay [6] and 90% in assay [7].
Turning to `C=CC1(C(=O)N[C@H]2CO[C@@H](C(=O)OC)C2)CC(c2cccc(F)c2)=NO1` (relative stereo) [I-07, methyl cis-4-[[3-(3-fluorophenyl)-5-vinyl-4H-isoxazole-5-carbonyl]amino]tetrahydrofuran-2-carboxylate], the results for the pest or weed control at 80 g/ha in assay [1] and in assay [5] were 80% and 90%, respectively. Besides, the pest or weed control at 320 g/ha stood at 80% in assay [6] and 90% in assay [7].
For the compound `COC(=O)C1CC(NC(=O)C2(C(C)(F)F)CC(c3cc(F)cc(F)c3)=NO2)CO1` (centres unmarked) [I-49], the “Pre-emergence herbicidal activity against POLCO in %” value in assay [1] stood at 100%. Further, the “Post-emergence herbicidal activity against LOLRI in %” value in assay [3] is 90%. The “Post-emergence herbicidal activity against VIOTR in %” value in assay [4] is listed as 80%. For the same compound, in assay [5], the “Pre-emergence herbicidal activity against AMARE in %” value was 100%. The “Post-emergence herbicidal activity against AVEFA in %” value in assay [7] turned out to be 80%.
With `COC(=O)C1COCC1NC(=O)[C@@]1(C)CC(c2cc(F)cc(F)c2)=NO1` (stereo partly drawn) [I-28, methyl 4-[[(5R)-3-(3,5-difluorophenyl)-5-methyl-4H-isoxazole-5-carbonyl]amino]tetrahydrofuran-3-carboxylate], the pest or weed control at 320 g/ha in assay [2] came out at 80%; in assay [4] it was 80%; in assay [6], 80%; in assay [7], 100%. This compound had a pest or weed control at 80 g/ha in assay [5] of 90%.
With `C=CC1(C(=O)N[C@H]2CO[C@@H](C(=O)OC)C2)CC(c2cc(Cl)cc(Cl)c2)=NO1` (relative stereo) [I-03, methyl cis-4-[[3-(3,5-dichlorophenyl)-5-vinyl-4H-isoxazole-5-carbonyl]amino]tetrahydrofuran-2-carboxylate], the pest or weed control at 80 g/ha in assay [1] and in assay [5] was 80% each time. The pest or weed control at 320 g/ha in assay [6] and in assay [7] was 80% in each case.
As for `COC(=O)C1COCC1NC(=O)C1(OC)CC(c2cc(Cl)cc(Cl)c2)=NO1` (centres unmarked) [I-29, methyl 4-[[3-(3,5-dichlorophenyl)-5-methoxy-4H-isoxazole-5-carbonyl]amino]tetrahydrofuran-3-carboxylate], the pest or weed control at 80 g/ha was determined as 100% in assay [1] and 90% in assay [5]. In addition, the pest or weed control at 320 g/ha was determined as 80% in assay [2], 80% in assay [4], 80% in assay [6] and 90% in assay [7].
`COC(=O)[C@H]1C[C@@H](NC(=O)[C@@]2(C)CC(c3cc(F)cc(F)c3)=NO2)CO1` (mixture of isomers) [I-09, methyl cis-4-[[(5R)-3-(3,5-difluorophenyl)-5-methyl-4H-isoxazole-5-carbonyl]amino]tetrahydrofuran-2-carboxylate]: the pest or weed control at 80 g/ha in assay [1] worked out at 100%; in assay [5] it was 80%. The pest or weed control at 320 g/ha in assay [4] was found to be 80%; in assay [6], 80%; in assay [7], 90%.
In the case of `C=CC1(C(=O)N[C@H]2CO[C@@H](C(=O)O)C2)CC(c2cc(F)cc(F)c2)=NO1` (relative stereo) [I-21, cis-4-[[3-(3,5-difluorophenyl)-5-vinyl-4H-isoxazole-5-carbonyl]amino]tetrahydrofuran-2-carboxylic acid], the figures for the pest or weed control at 80 g/ha in assay [1] and in assay [5] were 90% and 100%, respectively. In addition, the pest or weed control at 320 g/ha in assay [4] worked out at 80%; in assay [6], 80%; in assay [7] it was 90%.
